Reference: US20030055065A1, “Tricyclic amide and urea compounds useful for inhibition of G-protein function and for treatment of proliferative diseases” (priority 1993, published 2003)
Where two headings read alike, the source gives them in different places.

Molecular target: T1, farnesyl protein transferase (FPT), partially purified from rat brain (Rattus norvegicus, UniProt Q02293+Q04631)
T1 construct: were partially purified from rat brain by ammonium sulfate fractionation followed by Q-Sepharose
T1 sequence (Q02293 whole entry, one chain of several): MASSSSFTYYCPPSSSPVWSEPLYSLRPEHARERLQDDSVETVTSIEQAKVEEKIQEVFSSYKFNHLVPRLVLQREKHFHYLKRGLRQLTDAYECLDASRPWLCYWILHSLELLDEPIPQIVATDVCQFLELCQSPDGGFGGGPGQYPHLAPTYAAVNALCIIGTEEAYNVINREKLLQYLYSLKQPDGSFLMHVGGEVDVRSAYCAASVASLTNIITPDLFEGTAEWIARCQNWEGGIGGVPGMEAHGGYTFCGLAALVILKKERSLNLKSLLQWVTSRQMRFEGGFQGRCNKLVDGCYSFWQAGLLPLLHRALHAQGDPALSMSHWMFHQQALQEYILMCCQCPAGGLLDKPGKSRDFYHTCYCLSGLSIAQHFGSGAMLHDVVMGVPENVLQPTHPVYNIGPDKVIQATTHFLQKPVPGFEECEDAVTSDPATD
Assay: Inhibition of farnesyl protein transferase (transfer of [3H]farnesyl to Ras-CVLS)
Format: biochemical
Description: 1. In vitro enzyme assays: Inhibition of farnesyl protein transferase and geranylgeranyl protein transferase.
Human farnesyl protein transferase was also expressed in E. coli, using cDNA clones encoding both the α and β subunits. […] Human farnesyl protein transferase was partially-purified from the soluble protein fraction of E. coli as described above. […] Two forms of val^12-Ha-Ras protein were prepared as substrates for these enzymes, differing in their carboxy terminal sequence. One form terminated in cysteine-valine-leucine-serine (Ras-CVLS) the other in cystein-valine-leucine-leucine (Ras-CVLL). Ras-CVLS is a substrate for the farnesyl protein transferase while Ras-CVLL is a substrate for geranylgeranyl protein transferase I. The cDNAs encoding these proteins were constructed so that the proteins contain an amino-terminal extension of 6 histidine residues. Both proteins were expressed in Escherichia coli and purified using metal chelate affinity chromatography. The radiolabelled isoprenyl pyrophosphate substrates, [^3H]farnesyl pyrophosphate and [3H]geranylgeranyl pyrophosphate, were purchased from DuPont/New England Nuclear.
The reaction was allowed to proceed for 30 minutes at room temperature and then stopped with 0.5 ml of 4% sodium dodecyl sulfate (SDS) followed by 0.5 ml of cold 30% trichloracetic acid (TCA). Samples were allowed to sit on ice for 45 minutes and precipitated Ras protein was then collected on GF/C filter paper mats using a Brandel cell harvester. […] Percent inhibition was calculated relative to the DMSO vehicle control.

[1] = Ras-CVLS farnesylation, partially purified rat brain FPT, read-out: FPT IC50
[2] = enzyme inhibition, read-out: FPT IC50

| Compound | IC50 [1] [µM] | other results |
| --- | --- | --- |
| O=C(O)c1ccc(C(=O)N2CCC(=C3c4ccc(Cl)cc4CCc4cccnc43)CC2)cc1 [Example 106] | 5.3 |  |
| CSc1cc(CC(=O)N2CCC(=C3c4ccc(Cl)cc4CCc4cc(Br)cnc43)CC2)ccn1 [Example 410-V] | 1.17 |  |
| O=C(c1ccnc(Cl)c1)N1CCC(=C2c3ccc(Cl)cc3CCc3cccnc32)CC1 [Example 28] | 7.3 |  |
| O=C1CCC(C(=O)N2CCC(=C3c4ccc(Cl)cc4CCc4cccnc43)CC2)N1 (stereo not shown) [Example 123] |  | FPT inhibition (at 12.6 μM): 23% at 12.6 μM |
| Cc1cc(C(=O)N2CCC(=C3c4ccc(Cl)cc4CCc4cccnc43)CC2)cc(Cl)[n+]1[O-] [Example 37] | 11.4 |  |
| O=C(Cc1c[nH]c2ccccc12)N1CCC(=C2c3ccc(Cl)cc3CCc3cccnc32)CC1 [Example 129] |  | FPT inhibition (at 11.8 μM): 32% at 11.8 μM |
| CN1CCC(CC(=O)N2CCN([C@H]3c4ccc(Cl)cc4CCc4cccnc43)CC2)CC1 [Example 425-N] |  | IC50 [2]: 0.64 µM |
| O=C(Nc1cc[n+]([O-])cc1)N1CCN(C2c3ccc(Cl)cc3CCc3cccnc32)CC1 (stereo not shown) [Example 427] |  | IC50 [2]: 1.8 µM |
| NC(=O)c1ccc2c(c1)CCc1cccnc1C2=C1CCN(C(=O)Cc2ccncc2)CC1 [Example 436-D] | 0.75 |  |
| CC(=O)N1CCC(=C2c3ccc(Cl)cc3CCc3ccc[n+]([O-])c32)CC1 [Example 73] |  | FPT inhibition (at 15.6 μM): 27% at 15.6 μM |
| O=C(Nc1cccnc1)N1CCC(=C2c3ccc(Cl)cc3CCc3c(On4nnc5ccccc54)ccnc32)CC1 [Example 262] | 0.82 |  |
| COc1cc(C(=O)N2CCC(=C3c4ccc(Cl)cc4CCc4cccnc43)CC2)cc(OC)c1OC [Example 119] |  | FPT inhibition (at 11 μM): 41% at 11 μM |
| CC(=O)N1CCC(=C2c3ccc(Cl)cc3CCc3c(Cl)cc[n+]([O-])c32)CC1 [Example 74C] | 11.6 |  |
| CC(C)(C)CC(=O)N1CCC(=C2c3ccc(Cl)cc3CCc3cccnc32)CC1 [Example 57] | 9.8 |  |
| COC(=O)c1ccc2c(c1)CCc1cccnc1C2=C1CCN(C(=O)Cc2ccncc2)CC1 [Example 434-A] |  | IC50 [2]: 3.5 µM |
| O=C(Cc1cccnc1)N1CCC(=C2c3ccccc3CCc3cccnc32)CC1 [Example 323] | 4.9 |  |
| O=C(Cc1csc2ccccc12)N1CCC(=C2c3ccc(Cl)cc3CCc3cccnc32)CC1 [Example 221] | 3.71 |  |

| Compound | IC50 [1] [µM] | other results |
| --- | --- | --- |
| CC(C)(C(=O)N1CCN(C2c3ccc(Cl)cc3CCc3cccnc32)CC1)c1ccc[n+]([O-])c1 (stereo not shown) [Example 425-C] |  | IC50 [2]: 1.26 µM |
| COC(=O)c1ccc(C(=O)N2CCC(=C3c4ccc(Cl)cc4CCc4cccnc43)CC2)cc1 [Example 13] | 4.5 |  |
| O=C(C1CCNCC1)N1CCC(=C2c3ccc(Cl)cc3CCc3cccnc32)CC1 [Example 100] | 4.5 |  |
| COc1cc(C(=O)N2CCC(=C3c4ccc(Cl)cc4CCc4cccnc43)CC2)cc(OC)c1O [Example 24] | 6.2 |  |
| Cc1cc(C(=O)N2CCC(=C3c4ccc(Cl)cc4CCc4cccnc43)CC2)cc(Cl)n1 [Example 124] |  | FPT inhibition (at 12.8 μM): 37% at 12.8 μM |
| CC(=O)N1CCN(C2c3ccc(Cl)cc3CCc3cccnc32)CC1C (stereo not shown) [Example 149] | 10.8 |  |
| CC(=O)N1CCC(=C2c3ccc(Cl)cc3CCc3cc(Br)c[n+]([O-])c32)CC1 [Example 74B] | 4 |  |
| O=C(c1c[nH]c2ccccc12)N1CCC(=C2c3ccc(Cl)cc3CCc3cccnc32)CC1 [Example 30] | 5.7 |  |
| O=C(Cc1cccnc1)N1CCC(=C2c3ccc(Cl)cc3C(O)Cc3cccnc32)CC1 (stereo not shown) [Example 284] | 4.3 |  |
| O=C(Cc1ccnc(-n2ccnc2)c1)N1CCC(=C2c3ccc(Cl)cc3CCc3cc(Br)cnc32)CC1 [Example 410-T] | 1.8 |  |
| CC1(C2CCN(C(=O)Cc3ccncc3)CC2)c2ccc(Cl)cc2CCc2cccnc21 (stereo not shown) [Example 410] | 0.7 |  |
| O=C(Nc1cc[n+]([O-])cc1)N1CCN(C2c3ccc(Cl)cc3CCc3cc(Br)cnc32)CC1 (stereo not shown) [Example 427-B] |  | IC50 [2]: 0.21 µM |
| CN1CCCC(CC(=O)N2CCC(=C3c4ccc(Cl)cc4CCc4cc(Cl)cnc43)CC2)C1 (stereo not shown) [Example 411-V] |  | IC50 [2]: 0.27 µM |
| CCCNC(=O)N1CCC(CC(=O)N2CCN(C3c4ccc(Cl)cc4CCc4cccnc43)CC2)CC1 (stereo not shown) [Example 431-C] |  | IC50 [2]: 0.88 µM |
| O=C(Cc1ccc[n+]([O-])c1)N1CCN([C@H]2c3ccc(Cl)cc3CCc3cccnc32)CC1 [Example 425-G] |  | IC50 (FPT IC50, enzyme inhibition): 2.3 µM |
| O=C(Cc1ccncc1)N1CCC(C2c3ccc(Cl)cc3C([N+](=O)[O-])=Cc3cccnc32)CC1 (stereo not shown) [Example 410-L] | 2.9 |  |
| NCC(=O)N1CCC(CC(=O)N2CCN(C3c4ccc(Cl)cc4CCc4cccnc43)CC2)CC1 (stereo not shown) [Example 433-C] | 2.5 |  |
